In ChEMBL document CHEMBL1138548, “Three-dimensional QSAR analyses of 1,3,4-trisubstituted pyrrolidine-based CCR5 receptor inhibitors” (Eur J Med Chem, 2008):

Molecular target: C-C chemokine receptor type 5 (Homo sapiens, UniProt P51681)
Test: biochemical
Format: cell-based, CHO
Description: Displacement of [125I]MIP1alpha from human CCR5 expressed in CHO cells

Sequence of C-C chemokine receptor type 5 (P51681 whole entry): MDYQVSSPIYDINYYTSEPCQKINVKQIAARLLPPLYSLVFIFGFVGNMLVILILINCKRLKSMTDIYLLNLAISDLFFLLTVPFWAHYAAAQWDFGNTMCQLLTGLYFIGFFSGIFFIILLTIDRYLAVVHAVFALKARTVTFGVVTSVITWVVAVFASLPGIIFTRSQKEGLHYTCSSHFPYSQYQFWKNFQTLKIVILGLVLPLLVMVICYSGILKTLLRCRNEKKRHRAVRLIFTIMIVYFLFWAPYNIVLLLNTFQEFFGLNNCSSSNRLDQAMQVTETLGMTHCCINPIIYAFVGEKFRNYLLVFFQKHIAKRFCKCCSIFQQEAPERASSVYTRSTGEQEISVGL

Structure (SMILES)	IC50
CCn1nc(-c2ccc(CN)cc2)cc1C1CCN(C[C@H]2CN([C@@H](C(=O)O)C3CCCCC3)C[C@@H]2c2ccccc2)CC1	122 nM
CCc1nc(Cc2ccccc2)oc1C1CCN(C[C@H]2CN([C@H](CC3CCC3)C(=O)O)C[C@@H]2c2ccccc2)CC1	0.89 nM
O=C(O)[C@@H](CC1CCCCC1)N1C[C@H](CN2CCC(CCC(F)(F)c3ccc(F)cc3)CC2)[C@@H](c2ccccc2)C1	0.3 nM
Cn1nnc(-c2ccc(CCCC3(O)CCN(C[C@H]4CN(CC5CCCCC5)C[C@@H]4c4ccccc4)CC3)cc2)n1	0.4 nM
CCn1nc(C(C)(C)c2ccccc2)cc1C1CCN(C[C@H]2CN([C@@H](C(=O)O)C3CCCCC3)C[C@@H]2c2ccccc2)CC1	6.9 nM
C=C(Cc1ccccc1)[C@@H](C1CCCCC1)N1C[C@H](CN2CCC(O)(CCCc3ccccc3)CC2)[C@@H](c2ccccc2)C1	3.6 nM
CC(C)C[C@H](C(=O)O)N1C[C@H](CN2CCC(CCS(=O)(=O)c3ccc(F)cc3)CC2)[C@@H](c2cccc(F)c2)C1	0.9 nM
CCc1nc(Cc2ccccc2)sc1C1CCN(C[C@H]2CN([C@H](CC3CCC3)C(=O)O)C[C@@H]2c2ccccc2)CC1	0.76 nM
O=C(O)[C@@H](C1CCCCC1)N1C[C@H](CN2CCC(c3cc(Cc4ccccc4)on3)CC2)[C@@H](c2ccccc2)C1	1.2 nM
CC(C)C[C@H](C(=O)O)N1C[C@H](CN2CCC(CCSc3ccc(F)cc3)CC2)[C@@H](c2cccc(F)c2)C1	0.8 nM
CC(C)C[C@H](C(=O)O)N1C[C@H](CN2CCC(CCC(F)(F)c3ccc(F)cc3)CC2)[C@@H](c2cccc(F)c2)C1	0.5 nM
O=C(O)[C@@H](CC1CCC1)N1C[C@H](CN2CCC(c3[nH]c(Cc4ccccc4)nc3Cl)CC2)[C@@H](c2ccccc2)C1	0.6 nM
O=C(O)[C@@H](CC1CCC1)N1C[C@H](CN2CCC(c3nnc4ccccn34)CC2)[C@@H](c2cccc(F)c2)C1	12 nM
CCc1nc(Cc2ccccc2)sc1C1CCN(C[C@H]2CN([C@H](CC(C)C)C(=O)O)C[C@@H]2c2ccccc2)CC1	1 nM
O=C(O)[C@@H](C1CCCCC1)N1C[C@H](CN2CCC(c3cc(C(F)(F)c4ccccc4)n[nH]3)CC2)[C@@H](c2ccccc2)C1	2.1 nM
CC(C)(c1ccccc1)c1cc(C2CCN(C[C@H]3CN([C@@H](C(=O)O)C4CCCCC4)C[C@@H]3c3ccccc3)CC2)[nH]n1	11.5 nM
CCc1nc(Cc2ccccc2)[nH]c1C1CCN(C[C@H]2CN([C@H](CC3CCC3)C(=O)O)C[C@@H]2c2ccccc2)CC1	0.57 nM
O=C(O)[C@@H](CC1CC1)N1C[C@H](CN2CCC(CCC(OCCO)c3ccc(F)cc3)CC2)[C@@H](c2cccc(F)c2)C1 (some centres not stated)	3.7 nM
O=C(O)[C@@H](CC1CCC1)N1C[C@H](CN2CCC(c3cnc(Cc4ccccc4)s3)CC2)[C@@H](c2ccccc2)C1	0.23 nM
O=C(O)[C@@H](C1CCCCC1)N1C[C@H](CN2CCC(c3cc(Cc4ccccc4)no3)CC2)[C@@H](c2ccccc2)C1	0.8 nM
O=C(O)[C@@H](CC1CCC1)N1C[C@H](CN2CCC(c3cn4cccnc4n3)CC2)[C@@H](c2cccc(F)c2)C1	200 nM
O=C(O)[C@@H](CC1CC1)N1C[C@H](CN2CCC(c3cnc(Cc4ccccc4)s3)CC2)[C@@H](c2ccccc2)C1	0.23 nM
